The results in this text go back to the RepoRT retention time repository.

The nature of this series: HILIC, Waters ACQUITY UPLC BEH Amide, 100 × 2.1 mm, 1.7 µm; A: water + 0.125% formic acid + 10 mM ammonium formate; B: 5% water + 95% acetonitrile + 0.125% formic acid + 10 mM ammonium formate; gradient (min/%B) 0/100 2/100 7.7/70 9.5/40 10.25/30 12.75/100 17/100. Conditions: stereoisomer not certain.
Take `COc1cc(C=O)ccc1O` [Vanillin]: the LC retention time was 1.15 min.

Consider `CCCc1nc(C)c2c(=O)[nH]c(-c3cc(S(=O)(=O)N4CCN(CC)CC4)ccc3OCC)nn12` [Vardenafil], for which the LC retention time is 1.7 min.

Take `COc1ccc(C(CN(C)C)C2(O)CCCCC2)cc1` (stereo not given) [Venlafaxine]: the LC retention time came to 2.44 min.

`CC(=O)OC1CC2CCC3C(CCC4(C)C3CC([N+]3(C)CCCCC3)C4OC(C)=O)C2(C)CC1N1CCCCC1` (stereo not given) [Vercuronium]: the LC retention time was determined as 5.53 min.

On to `OC1CCCCC1N1CCC(c2ccccc2)CC1` (stereo not given) [Vesamicol], for which the LC retention time is 2.65 min.

For the molecule `CCC1(O)CC2CN(CCc3c([nH]c4ccccc34)C(C(=O)OC)(c3cc4c(cc3OC)N(C=O)C3C(O)(C(=O)OC)C(OC(C)=O)C5(CC)C=CCN6CCC43C65)C2)C1` (stereo not given) [Vincristine], the LC retention time is 3.7 min.

Regarding `CCC1(O)CC2CN(CCc3c([nH]c4ccccc34)C(C(=O)OC)(c3cc4c(cc3OC)N(C)C3C(O)(C(N)=O)C(O)C5(CC)C=CCN6CCC43C65)C2)C1` (stereo not given) [Vindesine], the LC retention time came to 5.76 min.

With `CCC1=CC2CN(C1)Cc1c([nH]c3ccccc13)C(C(=O)OC)(c1cc3c(cc1OC)N(C)C1C(O)(C(=O)OC)C(OC(C)=O)C4(CC)C=CCN5CCC31C54)C2` (stereo not given) [Vinorelbine], the LC retention time is 4.76 min.

As for `C=COC(N)=O` [Vinyl Carbamate], the LC retention time is 1.34 min.

Consider `Cc1ccnc2c1NC(=O)c1cccnc1N2C1CC1` [Viramune], for which the LC retention time turned out to be 1.16 min.

Take `O=c1cc(-c2ccc(O)cc2)oc2c(C3OC(CO)C(O)C(O)C3O)c(O)cc(O)c12` (stereo not given) [Vitexin]: the LC retention time came out at 5.33 min.

In the case of `CC(c1ncncc1F)C(O)(Cn1cncn1)c1ccc(F)cc1F` (stereo not given) [Voriconazole], the LC retention time worked out at 1.02 min.

For `CC(=O)CC(c1ccccc1)c1c(O)c2ccccc2oc1=O` (stereo not given) [Warfarin], the LC retention time was determined as 0.99 min.

For `NC(Cn1ccc(=O)[nH]c1=O)C(=O)O` (stereo not given) [Willardiine], the LC retention time was 8.72 min.

Regarding `CN(CCO)CC(O)Cn1cnc2c1c(=O)n(C)c(=O)n2C` (stereo not given) [Xanthinol], the LC retention time is 6.01 min.

As for `O=c1[nH]c(=O)c2ncn(C3OC(CO)C(O)C3O)c2[nH]1` (stereo not given) [Xanthosine], the LC retention time came to 7.3 min.

`COc1c2occc2cc2ccc(=O)oc12` [Xanthotoxin]: the LC retention time came out at 1.04 min.

For `COc1cc(N)c(Cl)cc1C(=O)NC1CN2CCC1CC2` (stereo not given) [Zacopride], the LC retention time was 4.66 min.

Consider `COc1cc(C(=O)NS(=O)(=O)c2ccccc2C)ccc1Cc1cn(C)c2ccc(NC(=O)OC3CCCC3)cc12` [Zafirlukast], for which the LC retention time amounted to 1 min.

For `CCN(C(C)=O)c1cccc(-c2ccnc3c(C#N)cnn23)c1` [Zaleplon], the LC retention time turned out to be 1.02 min.

Consider `COc1cc(-c2ccc(=O)[nH]n2)ccc1OC(F)F` [Zardaverine], for which the LC retention time was found to be 1.19 min.

On to `CC1CCCC(O)CCCCCc2cc(O)cc(O)c2C(=O)O1` (stereo not given) [Zeranol], for which the LC retention time was determined as 1.11 min.

Regarding `CC(c1cc2ccccc2s1)N(O)C(N)=O` (stereo not given) [Zileuton], the LC retention time amounted to 1.23 min.

As for `CN(C)CCc1c[nH]c2ccc(CC3COC(=O)N3)cc12` (stereo not given) [Zolmitriptan], the LC retention time came out at 4.8 min.

For the molecule `Cc1ccc(-c2nc3ccc(C)cn3c2CC(=O)N(C)C)cc1` [Zolpidem], the LC retention time is 1.62 min.

Turning to `N[C@H]1[C@@H](OP(=O)(O)O)O[C@H](CO)[C@H](O)[C@@H]1O` [alpha-Galactosamine-1-phosphate], the LC retention time was 7.06 min.

In the case of `CSCCC(=O)C(=O)O` [alpha-Keto-gamma-(methylthio)butyric acid], the LC retention time worked out at 0.92 min.

As to `C=C1CCOC1=O` [alpha-Methylene-gamma-butyrolactone], the LC retention time is 1.05 min.

Consider `C[C@](N)(Cc1cnc[nH]1)C(=O)O` [alpha-Methylhistidine], for which the LC retention time is 8.68 min.

Turning to `CC1=C2C3OC(=O)C(C)C3CCC2(C)C=CC1=O` (stereo not drawn) [alpha-Santonin], the LC retention time worked out at 1.07 min.

Regarding `NCCC(=O)O` [beta-Alanine], the LC retention time came to 8.02 min.

`CC(C)(O)CC(=O)O` [beta-Hydroxyisovaleric acid]: the LC retention time was 4.55 min.

Regarding `CNC[C@H](N)C(=O)O` [beta-N-Methylaminoalanine], the LC retention time is 9.32 min.

In the case of `NCC(O)CCC(N)C(=O)O` (stereo not given) [delta-Hydroxylysine], the LC retention time amounted to 9.77 min.

As to `NCCCC(=O)O` [gamma-Aminobutyric Acid], the LC retention time amounted to 7.86 min.

With `NC(CCC(=O)NC(CS)C(=O)O)C(=O)O` (stereo not given) [gamma-Glutamyl-cysteine], the LC retention time came out at 8.98 min.

As for `NC(=O)CCC(NC(=O)CCC(N)C(=O)O)C(=O)O` (stereo not given) [gamma-Glutamylglutamine], the LC retention time was found to be 9.55 min.

As for `CC(C)CC(NC(=O)CCC(N)C(=O)O)C(=O)O` (stereo not given) [gamma-Glutamylleucine], the LC retention time came to 8.1 min.

Regarding `CSCCC(NC(=O)CCC(N)C(=O)O)C(=O)O` (stereo not given) [gamma-Glutamylmethionine], the LC retention time came to 8.55 min.

As to `NC(CCC(=O)NC(Cc1ccc(O)cc1)C(=O)O)C(=O)O` (stereo not given) [gamma-Glutamyltyrosine], the LC retention time is 8.52 min.

`CC(OP(=O)(O)O)C(N)C(=O)O` (stereo not given) [o-Phosphothreonine]: the LC retention time was found to be 9.74 min.

Regarding `CN(C)c1ccc(N=Nc2ccccc2)cc1` [p-(Dimethylamino)azobenzene [methyl yellow]], the LC retention time was determined as 0.93 min.

On to `O=C(O)C=Cc1ccc(O)cc1` [p-Coumaric acid], for which the LC retention time worked out at 1.38 min.

Regarding `CN1C(=O)C(O)CC1c1cccnc1` (stereo not drawn) [trans-3'-Hydroxycotinine], the LC retention time was found to be 2.02 min.

`OCC1OC(Oc2cc(O)cc(C=Cc3ccc(O)cc3)c2)C(O)C(O)C1O` (stereo not drawn) [trans-Piceid]: the LC retention time was determined as 4.64 min.
